Data reported in US20010016952A1, “Pathogenesis of cardiomyopathy” (priority 1999, published 2001).
Entries after “also recorded” stand apart in the source; their conditions may differ.

How the values were obtained:
Type in all cases: in vivo, mouse
[1] = system: Sgcd-null mice; experiment: Systemic blood pressure after Nicorandil; details: at the dose given
[2] = system: Sgcd-null mice; experiment: Treadmill exercise of Sgcd-null mice with Evans blue dye uptake and H&E histopathology of cardiac muscle
Description: Treadmill exercise is one of the primary methods used clinically to induce cardiovascular stress in human and animals (Fewell et al., Am. J. Physiol. 273: H1595-H1605 (1997)) and is used to detect cardiovascular abnormalities (e.g. coronary artery dysfunction) that may not be readily apparent at rest. […] All mice were injected with Evans blue dye (EBD) 8 hr before the exercise. EBD is a small molecular mass tracer that tightly complexes with serum albumin. Normally, this is a membrane impermeable molecule, but if the sarcolemma integrity is compromised this dye readily penetrates into the cytoplasm of muscle fibers (Matsuda et al., J. Biochem. (Tokyo) 118: 959-964 (1995); Straub et al., J. Cell Biol. 139: 375-385 (1997)). EBD uptake as well as routine histopathology was examined in the cardiac muscle.
Treadmill exercise. […] Animals were exercised at 12-17 m/min for about 10 min and for 25-30 m/min for the remaining 50 min. If an animal became exhausted, the shock bar of this lane was turned off and the animal was allowed to rest at the back of the treadmill for a short period of time. Wild type (n=20), Sgca- (n=20) and Sgcd-null mice (n=42) were divided in approximately equal numbers of male and females. All mice were injected with Evans blue dye (0.5 mg EBD/0.05 ml PBS) intraperitoneally 8 hr before the exercise. Animals were injected with 50 μl of this solution per 10-g body weight. […] The effect of Nicorandil treatment on treadmill performance in wild type (n=6), Sgca- (n=6) and Sgcd-null mice (n=20) was studied after 3 days of intraperitoneal injection of Nicorandil at a dose of 1 mg/kg body weight twice a day. Quantification of Evans blue positive stained areas in sections of cardiac muscle from Sgca- and Sgcd-null mice (n=20, each group) was done by using the Scion image program. The percentage of positive stained areas was calculated by dividing the area of staining by the total area of the analyzed heart section.

[3] = system: Sgcd-null mice; experiment: Microfil perfusion of coronary arteries
Text: The Microfil® perfusion technique was used in vivo in order to determine whether disruption of the SG-SSPN complex in smooth muscle of coronary arteries indeed leads to vascular perfusion abnormalities. Wild type, Sgca-null and Sgcd-null mice at the age of 2-6 months were perfused, and cleared sections of the heart were visualized using trans-illumination with low-power magnification. The coronary microvessels were distributed normally and were smoothly tapered in both wild type and Sgca-null mice. […] Pre- and poststenotic dilation as an appearance of microaneurysm was frequently associated with these constrictions. Extensive areas of focal vascular lumen narrowing and a generalized sparseness of perfusion were observed. […] Quantification of vascular abnormalities in Sgcd-null mice at different ages were determined by calculating the mean numbers of abnormal vessels ±SEM in 10 nonadjacent microscopic fields at a magnification of 10×. No lesions were detected in Sgca-null and wild type mice.
Microfil® perfusion. In order to study coronary microvascular perfusion mice were anesthetized with Phenobarbital 75 mg/kg body weight and a bilateral sternum incision was performed to expose the left atrium. 1-1.5 ml of Microfil®, a liquid silicon rubber (Flow tech, Carver, Mass.) was perfused into the left atrium. The heart continued beating for about 1 min and after contraction stopped the heart was rapidly excised and cured on ice for about 10 min. […] Microvascular perfusion was visualized with both epi- and tans-illumination and examined under low power magnification (×10-20). the vascular irregularities in Sgcd-null mice at different ages (2, 4, and 6 months) were quantified by counting the number of abnormal individual vessel segments in 10 nonadjacent microscopic field using a low magnification (10×) and the mean number of abnormal vessels were calculated for each mouse. An average number of abnormal vessels ±SEM were then calculated for each age group. Vessels segments with more than one abnormality were only counted once.

[4] = system: wild type or Sgca-null mice; experiment: Treadmill exercise of wild type or Sgca-null mice after Nicorandil; details: after administration of Nicorandil
Description: Treadmill exercise. […] Animals were exercised at 12-17 m/min for about 10 min and for 25-30 m/min for the remaining 50 min. If an animal became exhausted, the shock bar of this lane was turned off and the animal was allowed to rest at the back of the treadmill for a short period of time. Wild type (n=20), Sgca- (n=20) and Sgcd-null mice (n=42) were divided in approximately equal numbers of male and females. All mice were injected with Evans blue dye (0.5 mg EBD/0.05 ml PBS) intraperitoneally 8 hr before the exercise. Animals were injected with 50 μl of this solution per 10-g body weight. All surviving animals were kept alive for 36-48 hr and serial sections of cardiac muscle were studied for Evans blue uptake and for histopathological signs of necrosis by using routine H&E technique. The effect of Nicorandil treatment on treadmill performance in wild type (n=6), Sgca- (n=6) and Sgcd-null mice (n=20) was studied after 3 days of intraperitoneal injection of Nicorandil at a dose of 1 mg/kg body weight twice a day. Quantification of Evans blue positive stained areas in sections of cardiac muscle from Sgca- and Sgcd-null mice (n=20, each group) was done by using the Scion image program. The percentage of positive stained areas was calculated by dividing the area of staining by the total area of the analyzed heart section.

[5] = Sgcd-null mice after administration of Nicorandil

## O=C(NCCO[N+](=O)[O-])c1cccnc1 [Nicorandil]
[1]
  systemic blood pressure: did not lower the systemic blood pressure
[2]; 2 months old exercised Sgcd-null mice, intraperitoneal Nicorandil for 3 days prior to the exercise
  EBD uptake in cardiac muscle: No EBD uptake was observed
[2]; Sgcd-null mice (n=20), treadmill exercise, Nicorandil intraperitoneal 1 mg/kg body weight twice a day for 3 days prior to exercise
  development of multiple myocardial ischemic lesions: prevented mortality and the development of multiple myocardial lesions; also recorded: prevent the development of multiple myocardial ischemic lesions in all Sgcd-null mice
[2]; Sgcd-null mice, Nicorandil given prior to the application of physical stress
  mortality in treadmill stressed mice: prevented mortality
[3]; Nicorandil treated Sgcd-null mice
  constrictions and focal luminal narrowing of the coronary microvascular bed (perfusion studies): free of constrictions and focal luminal narrowing
[3]; [5]
  density of the vasculature (Microfil perfusion): overall greater density of the vasculature
  vascular constrictions of coronary arteries (Microfil perfusion): no evidence of vascular constrictions
[4]
  general behavior during exercise and cardiac muscle abnormalities: No alteration of the general behavior during exercise or any cardiac muscle abnormalities was observed
